According to PMC6331797, “Escherichia coli ASKA Clone Library Harboring tRNA-Specific Adenosine Deaminase (tadA) Reveals Resistance towards Xanthorrhizol” (Molecules, 2015):

Experiments:
Assay in all cases: tryptophan fluorescence quenching titration with purified protein
Type in all cases: binding
[1] = target: T1, tadA (tRNA-specific adenosine deaminase) (Escherichia coli, UniProt P68398, F149G)
T1 construct: his-tagged tadA

[2] = target: T2, tadA (tRNA-specific adenosine deaminase) (Escherichia coli, UniProt P68398)
T2 construct: his-tagged tadA
T2 sequence (P68398 whole entry): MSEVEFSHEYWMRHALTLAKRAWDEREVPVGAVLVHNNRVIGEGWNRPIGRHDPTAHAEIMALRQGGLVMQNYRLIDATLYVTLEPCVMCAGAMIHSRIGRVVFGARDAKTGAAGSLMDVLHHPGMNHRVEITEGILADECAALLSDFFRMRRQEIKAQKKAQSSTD

[3] = target: T3, tadA (tRNA-specific adenosine deaminase) (Escherichia coli, UniProt P68398, A143V)
T3 construct: his-tagged tadA
T3 sequence (P68398 whole entry A143V): as the sequence (P68398 whole entry) above, with A143V counted along it

T1 sequence (P68398 whole entry F149G): as the sequence (P68398 whole entry) above, with F149G counted along it

CC(C)=CCC[C@@H](C)c1ccc(C)c(O)c1 [xanthorrhizol]
Kd [1]: 32.8 µM | Kd [2]: 19 µM | Kd [3]: 110 µM
